Patent US8668925B2, “Transdermal delivery of hormones without the need of penetration enhancers” (Bayer Intellectual Property GmbH, priority 2003, dated 2014)

Experiments:
[1] = cited from earlier work
[2] = Serum pharmacokinetics of Ethinylestradiol and Gestodene during two patch treatment cycles; design: species or system women; details: female, human, in vivo, topical or ocular, 0.9 mg, AUC(0-[…]) of ethinyl estradiol (EE), mean
From the text: Arcare MA-24A® is a polyisobutylene based adhesive from Adhesive Research.
The treatment phase includes a period of two menstrual cycles. The first treatment in the first cycle began one day after the volunteers started menstruating in this cycle by application of a patch. A total of three test patches were applied in intervals of 7 days between, such as application at days 1, 8 and 15 of the first cycle—each at different application sites—during each treatment cycle. Each patch was worn for 7 days, then replaced with a new patch to complete a total of 21 days of continuous use. This was followed by a 7-day treatment-free interval before the next treatment period started with a total of three patches applied, each applied with an interval of 7 days. If the patches were lost or became more than 40% detached, a new patch was applied.
The AUC was calculated according to the linear trapezoidal rule.
The sampling points were at the day 18 of the last pre-treatment cycle and days 1, 2, 3, 4, 5, 6, 7, 8, 15, 16, 17, 18, 19, 20, 21 and 22 of cycle 1 as well as days 1 (before application of new patch), 2, 3, 4, 5, 6, 7, 8, 15, 16, 17, 18, 19, 20, 21 and 22 of cycle 2.
After incubation and centrifugation, the resultant precipitate was redissolved with NaOH. The assay has a lower limit of quantification of approx. 250 μg/ml.

Row | SMILES | Maximal plasma levels ([1]; U.S. Pat. No. 5,376,377, ethylene vinyl acrylate adhesive layer, Gestodene and ethinylestradiol) | maximal plasma levels of Gestodene ([1]; WO 92/07590, transdermal compositions with penetration enhancers) | AUC(0-t) ([2]; Cycle 1, Week 1, test patch) [ng·h/mL] | AUC(0-t) ([2]; Cycle 1, Week 3, test patch) [ng·h/mL] | AUC(0-t) ([2]; Cycle 2, Week 1, test patch) [ng·h/mL] | AUC(0-t) ([2]; Cycle 2, Week 3, test patch) [ng·h/mL]
1 | C#C[C@]1(O)C=C[C@H]2[C@@H]3CCC4=CC(=O)CC[C@@H]4[C@H]3CC[C@@]21CC [Gestodene, 13β-Ethyl-17α-ethynyl-17β-hydroxy-4,15-gonadien-3-one] | about 0.8 ng/ml | about 0.9 ng/ml | – | – | – | –
2 | C#C[C@]1(O)CC[C@H]2[C@@H]3CCc4cc(O)ccc4[C@H]3CC[C@@]21C [ethinyl estradiol, Ethinylestradiol] | – | – | 5.3 | 6.1 | 5.1 | 5.8
